Measured values as given in ChEMBL document CHEMBL5625193, “Modulation of taxane binding to tubulin curved and straight conformations by systematic 3'N modification provides for improved microtubule binding, persistent cytotoxicity and in vivo potency” (Eur J Med Chem, 2023).

Experiments:
[1] = human, mda-mb-231, 2 h
[2] = human, mda-mb-231, 24 h

Drug uptake [1]: Active
Drug uptake [2]: Active
SMILES: CC(=O)O[C@H]1C(=O)[C@@]2(C)[C@H]([C@H](OC(=O)c3ccccc3)[C@]3(O)C[C@H](OC(=O)[C@H](O)[C@@H](NC(=O)c4ccccc4)c4ccccc4)C(C)=C1C3(C)C)[C@]1(OC(C)=O)CO[C@@H]1C[C@@H]2O [PACLITAXEL]
